Assay results published in patent US20230142844A1, “USE OF 1,9-DECANEDIOL IN RETARDING UREA HYDROLYSIS” (INSTITUTION OF SOIL SCIENCE, CHINESE ACADEMY OF SCIENCES, priority 2021, published 2023).

Test system: urea hydrolysis in soil
Test: Soil culture test: effect of inhibitors applied with urea on urea hydrolysis (urea nitrogen and ammonia nitrogen contents in soil)
Conditions: for contents of ammonia nitrogen in soil (NH4^+-N) / contents of urea nitrogen in soil (Urea-N): flooded paddy soil, 25° C.; for inhibition of urea hydrolysis during the culture period / effect on retarding the hydrolysis efficiency of urea: result in words; for effect on retarding the hydrolysis efficiency of urea: applied with urea to flooded paddy soil
Experimental: 1.1 experimental soil: the type of experimental soil is paddy soil, and the texture is sandy loam soil. It is collected from 0-20 cm topsoil of experimental field in Yingtan City, Jiangxi Province (28° 15′N, 116° 55′E). It is sieved by 2 millimeters (mm), mixed, and reserved.
1.2 test reagent: 1,9-decanediol is customized in market, and a structural formula thereof is C10H22O2. Nitrification inhibitor is dicyandiamide (DCD, a structural formula thereof is C2H4N4) is purchased from Sigma.
1.3 experimental treatment: experimental setting as follows: urea treatment (U); nitrification inhibitor DCD +urea treatment including: DCD-20 mg/kg soil; 1,9-decanediol+urea treatment in the soil including: 1,9-D-100 mg/kg, 1,9-D-200 mg/kg, 1,9-D-500 mg/kg, and 1,9-D-1000 mg/kg. Each treatment is repeated three times. The amount of nitrogen applied is […] nitrogen per kilogram soil.
After the experimental soil is weighed into 100 milliliters (mL) plastic pipe, distilled water is evenly added, and the soil water content is adjusted to 60% of the maximum field water capacity. Then the plastic pipe is sealed with sealing film and uniform holes are pricked to keep air flowing, and pre-cultured in a 25° C. incubator for three days.
After the pre-culture, according to the different experimental treatments, the corresponding urea and inhibitors (1,9-decanediol and DCD) are weighed to form a mixed solution, the mixed solution is evenly applied to soil, then distilled water is added to maintain a flooded state, and cultured at 25° C. […]. The contents of urea nitrogen and ammonia nitrogen in soil are measured on the 1st, 2nd, 3rd, 5th, and 7th days of culture to evaluate the effects of different inhibitors on nitrogen transformation.

[1] = 1,9-decanediol 100 mg/kg in soil + urea, 1 d of culture
[2] = 1,9-decanediol 100 mg/kg in soil + urea, 2 d of culture
[3] = 1,9-decanediol 100 mg/kg in soil + urea, 3 d of culture
[4] = 1,9-decanediol 100 mg/kg in soil + urea, 5 d of culture
[5] = 1,9-decanediol 100 mg/kg in soil + urea, 7 d of culture
[6] = 1,9-decanediol 200 mg/kg in soil + urea, 1 d of culture
[7] = 1,9-decanediol 200 mg/kg in soil + urea, 2 d of culture
[8] = 1,9-decanediol 200 mg/kg in soil + urea, 5 d of culture
[9] = 1,9-decanediol 200 mg/kg in soil + urea, 7 d of culture
[10] = 1,9-decanediol 500 mg/kg in soil + urea, 1 d of culture
[11] = 1,9-decanediol 500 mg/kg in soil + urea, 2 d of culture
[12] = 1,9-decanediol 500 mg/kg in soil + urea, 3 d of culture
[13] = 1,9-decanediol 500 mg/kg in soil + urea, 5 d of culture
[14] = 1,9-decanediol 500 mg/kg in soil + urea, 7 d of culture
[15] = 1,9-decanediol 1000 mg/kg in soil + urea, 1 d of culture
[16] = 1,9-decanediol 1000 mg/kg in soil + urea, 2 d of culture
[17] = 1,9-decanediol 1000 mg/kg in soil + urea, 3 d of culture
[18] = 1,9-decanediol 1000 mg/kg in soil + urea, 5 d of culture
[19] = 1,9-decanediol 1000 mg/kg in soil + urea, 7 d of culture
[20] = DCD 20 mg/kg soil + urea, 1 d of culture
[21] = DCD 20 mg/kg soil + urea, 2 d of culture
[22] = DCD 20 mg/kg soil + urea, 3 d of culture
[23] = DCD 20 mg/kg soil + urea, 5 d of culture
[24] = DCD 20 mg/kg soil + urea, 7 d of culture

## CC(O)CCCCCCCCO (stereo not drawn) [1,9-D, 1,9-decanediol]
[1]
  contents of ammonia nitrogen in soil (NH4^+-N): 171.9 ± 8.1a
  contents of urea nitrogen in soil (Urea-N): 10.1 ± 0.7c
[2]
  contents of ammonia nitrogen in soil (NH4^+-N): 176.8 ± 1.2c
  contents of urea nitrogen in soil (Urea-N): 3.7 ± 1.2cd
[3]
  contents of ammonia nitrogen in soil (NH4^+-N): 197.7 ± 7.3ab
  contents of urea nitrogen in soil (Urea-N): 3.4 ± 0.5 days
[4]
  contents of ammonia nitrogen in soil (NH4^+-N): 187 ± 8.5 mg/kg
  contents of urea nitrogen in soil (Urea-N): 3.3 ± 0.2c
[5]
  contents of ammonia nitrogen in soil (NH4^+-N): 221.7 ± 2.4ab
  contents of urea nitrogen in soil (Urea-N): 2.9 ± 0.5bc
[6]
  contents of ammonia nitrogen in soil (NH4^+-N): 150.8 ± 2.8b
  contents of urea nitrogen in soil (Urea-N): 15.2 ± 0.1c
[7]
  contents of ammonia nitrogen in soil (NH4^+-N): 173.7 ± 1.9c
  contents of urea nitrogen in soil (Urea-N): 9.1 ± 0.51b
1,9-decanediol 200 mg/kg in soil + urea, 3 d of culture
  contents of ammonia nitrogen in soil (NH4^+-N): 195 ± 9b
[8]
  contents of ammonia nitrogen in soil (NH4^+-N): 213.9 ± 3.3ab
  contents of urea nitrogen in soil (Urea-N): 2.8 ± 0.5c
[9]
  contents of ammonia nitrogen in soil (NH4^+-N): 221.4 ± 4.4ab
  contents of urea nitrogen in soil (Urea-N): 4.2 ± 1.4ab
[10]
  contents of ammonia nitrogen in soil (NH4^+-N): 51 ± 1.1c
  contents of urea nitrogen in soil (Urea-N): 115.6 ± 13b
[11]
  contents of ammonia nitrogen in soil (NH4^+-N): 160 ± 6.2 mg/kg
  contents of urea nitrogen in soil (Urea-N): 11.7 ± 0.4b
[12]
  contents of ammonia nitrogen in soil (NH4^+-N): 180.8 ± 6.3c
  contents of urea nitrogen in soil (Urea-N): 10.5 ± 0.7b
[13]
  contents of ammonia nitrogen in soil (NH4^+-N): 207.3 ± 2.1b
  contents of urea nitrogen in soil (Urea-N): 6.1 ± 0.6a
[14]
  contents of ammonia nitrogen in soil (NH4^+-N): 217.3 ± 3.3b
  contents of urea nitrogen in soil (Urea-N): 3.4 ± 0.7bc
[15]
  contents of ammonia nitrogen in soil (NH4^+-N): 46.3 ± 2.1c
  contents of urea nitrogen in soil (Urea-N): 139 ± 7.2a
[16]
  contents of ammonia nitrogen in soil (NH4^+-N): 92.9 ± 0.4e
  contents of urea nitrogen in soil (Urea-N): 73.4 ± 3.8a
[17]
  contents of ammonia nitrogen in soil (NH4^+-N): 152 ± 1.4 mg/kg
  contents of urea nitrogen in soil (Urea-N): 14.8 ± 1.7a
[18]
  contents of ammonia nitrogen in soil (NH4^+-N): 196.7 ± 2c
  contents of urea nitrogen in soil (Urea-N): 5 ± 0.5b
[19]
  contents of ammonia nitrogen in soil (NH4^+-N): 203.2 ± 7c
  contents of urea nitrogen in soil (Urea-N): 5.4 ± 0.5a
Addition of 500 mg/kg
  inhibition of urea hydrolysis during the culture period: can significantly inhibit the urea hydrolysis
Addition of 1000 mg/kg
  inhibition of urea hydrolysis during the culture period: can significantly inhibit the urea hydrolysis
  effect on retarding the hydrolysis efficiency of urea: can retard the hydrolysis efficiency of urea
Ranking of treatments (1,9-D 100-1000 mg/kg, DCD 20 mg/kg soil)
  efficiencies of retarding urea hydrolysis from large to small: 1, 9-D-1000>1, 9-D-500>1, 9-D-200>1, 9-D-100>DCD

## N#CN=C(N)N [DCD, dicyandiamide, reference compound]
[20]
  contents of ammonia nitrogen in soil (NH4^+-N): 176.9 ± 5.5a
  contents of urea nitrogen in soil (Urea-N): 4.5 ± 0.4c
[21]
  contents of ammonia nitrogen in soil (NH4^+-N): 183.6 ± 4b
  contents of urea nitrogen in soil (Urea-N): 1.6 ± 0.3 days
[22]
  contents of ammonia nitrogen in soil (NH4^+-N): 203.1 ± 1.6ab
  contents of urea nitrogen in soil (Urea-N): 1.4 ± 0.2e
[23]
  contents of ammonia nitrogen in soil (NH4^+-N): 208.4 ± 1.6b
  contents of urea nitrogen in soil (Urea-N): 1.2 ± 0.1 days
[24]
  contents of ammonia nitrogen in soil (NH4^+-N): 217.9 ± 4.3b
  contents of urea nitrogen in soil (Urea-N): 2.9 ± 0.4bc
  effect on retarding the hydrolysis efficiency of urea: no effect
